Assay results taken from PubChem BioAssay (NCI).
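Cells were grown in 96-well plates and exposed to each compound for 48 hours at five concentrations; endpoints were interpolated linearly between bracketing concentrations, or set to the highest concentration if not reached. At the GI50, growth is halved. Definition used: TGI = concentration required for complete inhibition of growth.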

Key:
Assay in all cases: NCI-60 cell line screen, 48 h
PC-3 prostate = test system: PC-3 prostate
NCI-H226 lung = test system: NCI-H226 lung
SK-MEL-2 melanoma = test system: SK-MEL-2 melanoma
MALME-3M melanoma = test system: MALME-3M melanoma
UACC-257 melanoma = test system: UACC-257 melanoma
HCT-116 colon = test system: HCT-116 colon
NCI-H522 lung = test system: NCI-H522 lung
SF-539 CNS = test system: SF-539 CNS
DU-145 prostate = test system: DU-145 prostate
NCI-H460 lung = test system: NCI-H460 lung
NCI/ADR-RES ovarian = test system: NCI/ADR-RES ovarian
KM12 colon = test system: KM12 colon
COLO 205 colon = test system: COLO 205 colon
HOP-62 NSCLC = test system: HOP-62 NSCLC
OVCAR-4 ovarian = test system: OVCAR-4 ovarian
OVCAR-3 ovarian = test system: OVCAR-3 ovarian
UO-31 renal = test system: UO-31 renal
CAKI-1 renal = test system: CAKI-1 renal
M14 melanoma = test system: M14 melanoma
SF-295 CNS = test system: SF-295 CNS
SR leukemia = test system: SR leukemia
TK-10 renal = test system: TK-10 renal
UACC-62 melanoma = test system: UACC-62 melanoma
HCC-2998 colon = test system: HCC-2998 colon
SNB-19 CNS = test system: SNB-19 CNS
HOP-92 NSCLC = test system: HOP-92 NSCLC
SF-268 CNS = test system: SF-268 CNS
A498 renal = test system: A498 renal
MCF7 breast = test system: MCF7 breast
MDA-MB-435 = test system: MDA-MB-435
ACHN renal = test system: ACHN renal
HCT-15 colon = test system: HCT-15 colon
IGROV1 ovarian = test system: IGROV1 ovarian
OVCAR-8 ovarian = test system: OVCAR-8 ovarian
U251 CNS = test system: U251 CNS
EKVX NSCLC = test system: EKVX NSCLC
HS 578T breast = test system: HS 578T breast
786-0 renal = test system: 786-0 renal
LOX IMVI melanoma = test system: LOX IMVI melanoma
SK-MEL-5 melanoma = test system: SK-MEL-5 melanoma
SNB-75 CNS = test system: SNB-75 CNS
RXF 393 renal = test system: RXF 393 renal
HT29 colon = test system: HT29 colon
MDA-MB-231 breast = test system: MDA-MB-231 breast
A549 NSCLC = test system: A549 NSCLC
BT-549 breast = test system: BT-549 breast
MOLT-4 leukemia = test system: MOLT-4 leukemia
K-562 leukemia = test system: K-562 leukemia
T-47D breast = test system: T-47D breast
NCI-H23 lung = test system: NCI-H23 lung
SK-OV-3 ovarian = test system: SK-OV-3 ovarian
SW-620 colon = test system: SW-620 colon
SK-MEL-28 melanoma = test system: SK-MEL-28 melanoma
OVCAR-5 ovarian = test system: OVCAR-5 ovarian
RPMI-8226 leukemia = test system: RPMI-8226 leukemia
CCRF-CEM leukemia = test system: CCRF-CEM leukemia
SN12C renal = test system: SN12C renal
HL-60(TB) leukemia = test system: HL-60(TB) leukemia

## O=C1N(CN2CCOCC2)CN(CN2CCOCC2)C(=O)N1Cc1ccc(-c2ccc(CN3C(=O)N(CN4CCOCC4)CN(CN4CCOCC4)C3=O)cc2)cc1
PC-3 prostate
  TGI: > 79500 nM
NCI-H226 lung
  TGI: > 77300 nM
SK-MEL-2 melanoma
  TGI: > 51800 nM
MALME-3M melanoma
  TGI: 34600 nM
UACC-257 melanoma
  TGI: 37900 nM
HCT-116 colon
  TGI: 29700 nM
NCI-H522 lung
  TGI: 35400 nM
SF-539 CNS
  TGI: > 74300 nM
DU-145 prostate
  TGI: 40100 nM
NCI-H460 lung
  TGI: 54500 nM
NCI/ADR-RES ovarian
  TGI: 80800 nM
KM12 colon
  TGI: 77300 nM
COLO 205 colon
  TGI: > 41900 nM
HOP-62 NSCLC
  TGI: > 57800 nM
OVCAR-4 ovarian
  TGI: 39300 nM
OVCAR-3 ovarian
  TGI: 30000 nM
UO-31 renal
  TGI: 40600 nM
CAKI-1 renal
  TGI: 29200 nM
M14 melanoma
  TGI: 21300 nM
SF-295 CNS
  TGI: 65600 nM
SR leukemia
  TGI: 18900 nM
TK-10 renal
  TGI: 43400 nM
UACC-62 melanoma
  TGI: 37700 nM
HCC-2998 colon
  TGI: 28300 nM
SNB-19 CNS
  TGI: 31200 nM
HOP-92 NSCLC
  TGI: 36400 nM
SF-268 CNS
  TGI: 59300 nM
A498 renal
  TGI: 44100 nM
MCF7 breast
  TGI: > 100000 nM
MDA-MB-435
  TGI: 13600 nM
ACHN renal
  TGI: 99300 nM
HCT-15 colon
  TGI: > 91200 nM
IGROV1 ovarian
  TGI: 46400 nM
OVCAR-8 ovarian
  TGI: 82900 nM
U251 CNS
  TGI: > 70800 nM
EKVX NSCLC
  TGI: 61500 nM
HS 578T breast
  TGI: > 100000 nM
786-0 renal
  TGI: 79400 nM
LOX IMVI melanoma
  TGI: 40600 nM
SK-MEL-5 melanoma
  TGI: > 38900 nM
SNB-75 CNS
  TGI: 49600 nM
RXF 393 renal
  TGI: 27300 nM
HT29 colon
  TGI: > 100000 nM
MDA-MB-231 breast
  TGI: > 73900 nM
A549 NSCLC
  TGI: 57600 nM
BT-549 breast
  TGI: 39100 nM
MOLT-4 leukemia
  TGI: > 100000 nM
K-562 leukemia
  TGI: 69000 nM
T-47D breast
  TGI: > 100000 nM
NCI-H23 lung
  TGI: 47500 nM
SK-OV-3 ovarian
  TGI: > 100000 nM
SW-620 colon
  TGI: 30700 nM
SK-MEL-28 melanoma
  TGI: 36200 nM
OVCAR-5 ovarian
  TGI: 39800 nM

## CCN1/C(=C/C=C/C=C/c2sc3ccccc3[n+]2CC)Sc2ccccc21
PC-3 prostate
  GI50: 243 nM
  TGI: 1390 nM
RPMI-8226 leukemia
  GI50: 149 nM
  TGI: 2210 nM
NCI-H226 lung
  GI50: 344 nM
  TGI: 2990 nM
SK-MEL-2 melanoma
  GI50: 979 nM
  TGI: 2720 nM
UACC-257 melanoma
  GI50: 475 nM
  TGI: 2940 nM
HCT-116 colon
  GI50: 181 nM
  TGI: 828 nM
NCI-H522 lung
  GI50: 281 nM
  TGI: 1510 nM
SF-539 CNS
  GI50: 377 nM
  TGI: 2490 nM
DU-145 prostate
  GI50: 394 nM
  TGI: 1730 nM
NCI-H460 lung
  GI50: 200 nM
  TGI: 1060 nM
NCI/ADR-RES ovarian
  GI50: 2990 nM
  TGI: 16700 nM
KM12 colon
  GI50: 378 nM
  TGI: 1400 nM
COLO 205 colon
  GI50: 191 nM
  TGI: 347 nM
HOP-62 NSCLC
  GI50: 420 nM
  TGI: 1540 nM
OVCAR-4 ovarian
  GI50: 261 nM
  TGI: 2510 nM
OVCAR-3 ovarian
  GI50: 331 nM
  TGI: 1180 nM
UO-31 renal
  GI50: 1660 nM
  TGI: 4400 nM
CAKI-1 renal
  GI50: 376 nM
  TGI: 2290 nM
M14 melanoma
  GI50: 416 nM
  TGI: 1490 nM
SF-295 CNS
  GI50: 153 nM
  TGI: 508 nM
SR leukemia
  GI50: 30.4 nM
  TGI: 1020 nM
TK-10 renal
  GI50: 472 nM
  TGI: 3970 nM
UACC-62 melanoma
  GI50: 512 nM
  TGI: 1880 nM
HCC-2998 colon
  GI50: 381 nM
  TGI: 1690 nM
SNB-19 CNS
  GI50: 350 nM
  TGI: 1890 nM
HOP-92 NSCLC
  GI50: 320 nM
  TGI: 3270 nM
SF-268 CNS
  GI50: 431 nM
  TGI: 1620 nM
A498 renal
  GI50: 943 nM
  TGI: 4120 nM
MCF7 breast
  GI50: 290 nM
  TGI: 1300 nM
MDA-MB-435
  GI50: 314 nM
  TGI: 1310 nM
ACHN renal
  GI50: 566 nM
  TGI: 3280 nM
HCT-15 colon
  GI50: 1220 nM
  TGI: 4700 nM
IGROV1 ovarian
  GI50: 503 nM
  TGI: 2140 nM
OVCAR-8 ovarian
  GI50: 398 nM
  TGI: 2580 nM
U251 CNS
  GI50: 234 nM
  TGI: 1540 nM
CCRF-CEM leukemia
  GI50: 353 nM
  TGI: > 21800 nM
EKVX NSCLC
  GI50: 122 nM
  TGI: 798 nM
HS 578T breast
  GI50: 272 nM
  TGI: 987 nM
786-0 renal
  GI50: 516 nM
  TGI: 1710 nM
LOX IMVI melanoma
  GI50: 296 nM
  TGI: 1600 nM
SK-MEL-5 melanoma
  GI50: 314 nM
  TGI: 1420 nM
SNB-75 CNS
  GI50: 243 nM
  TGI: 1470 nM
RXF 393 renal
  GI50: 805 nM
  TGI: 2530 nM
HT29 colon
  GI50: 230 nM
  TGI: 1200 nM
SN12C renal
  GI50: 327 nM
  TGI: 1760 nM
MDA-MB-231 breast
  GI50: 302 nM
  TGI: 1480 nM
A549 NSCLC
  GI50: 332 nM
  TGI: 2590 nM
BT-549 breast
  GI50: 213 nM
  TGI: 1180 nM
MOLT-4 leukemia
  GI50: 234 nM
  TGI: 1020 nM
HL-60(TB) leukemia
  GI50: 143 nM
  TGI: 656 nM
K-562 leukemia
  GI50: 65.2 nM
  TGI: 512 nM
T-47D breast
  GI50: 101 nM
  TGI: 669 nM
NCI-H23 lung
  GI50: 164 nM
  TGI: 2330 nM
SK-OV-3 ovarian
  GI50: 359 nM
  TGI: 1130 nM
SW-620 colon
  GI50: 379 nM
  TGI: 1840 nM
SK-MEL-28 melanoma
  GI50: 720 nM
  TGI: 2750 nM
OVCAR-5 ovarian
  GI50: 639 nM
  TGI: 6050 nM
